Results as given in ChEMBL document CHEMBL4118179, “Synthesis and biological evaluation of 6-hydroxyl C-aryl glucoside derivatives as novel sodium glucose co-transporter 2 (SGLT2) inhibitors” (Bioorg Med Chem Lett, 2018).

How the values were obtained:
[1] = target: T1, Sodium/glucose cotransporter 2 (Homo sapiens) (UniProt P31639); assay: Inhibition of full-length human SGLT2 expressed in CHO cells assessed as decrease in [14C]-methyl alpha-D-glucopyranoside uptake at 0.5 uM after 1 hr by liquid scintillation counting method; format: cell-based
T1 sequence (whole entry): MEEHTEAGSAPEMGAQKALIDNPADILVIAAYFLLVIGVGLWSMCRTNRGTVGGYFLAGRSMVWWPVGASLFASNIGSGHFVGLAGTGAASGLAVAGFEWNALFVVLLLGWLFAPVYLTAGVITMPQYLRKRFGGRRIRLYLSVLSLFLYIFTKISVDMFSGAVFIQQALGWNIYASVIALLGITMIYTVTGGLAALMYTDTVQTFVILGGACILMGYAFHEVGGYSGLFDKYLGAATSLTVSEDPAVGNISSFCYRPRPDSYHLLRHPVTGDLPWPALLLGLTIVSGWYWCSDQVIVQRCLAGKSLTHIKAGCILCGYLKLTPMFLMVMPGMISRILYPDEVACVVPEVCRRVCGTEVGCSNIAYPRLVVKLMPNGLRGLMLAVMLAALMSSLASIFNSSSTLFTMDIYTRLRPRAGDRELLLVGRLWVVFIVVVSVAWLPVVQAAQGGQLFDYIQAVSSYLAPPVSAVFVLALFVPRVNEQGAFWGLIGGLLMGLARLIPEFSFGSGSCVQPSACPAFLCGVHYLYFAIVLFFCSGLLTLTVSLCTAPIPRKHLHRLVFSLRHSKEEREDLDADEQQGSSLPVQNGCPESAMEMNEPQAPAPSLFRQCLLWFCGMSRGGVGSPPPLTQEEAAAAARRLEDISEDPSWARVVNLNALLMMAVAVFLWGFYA

[2] = target: T2, Sodium/glucose cotransporter 2 (Homo sapiens, UniProt P31639); assay: Inhibition of full-length human SGLT2 expressed in CHO cells assessed as decrease in [14C]-methyl alpha-D-glucopyranoside uptake after 1 hr by liquid scintillation counting method; format: cell-based
T2 sequence (P31639 whole entry): T1 sequence (whole entry)

**Q.** For `CCOc1ccc(Cc2ccc(O)c([C@@H]3O[C@H](CO)[C@@H](O)[C@H](O)[C@H]3O)c2)cc1`, which inhibition [1] is on record?
**A.** Its inhibition is 104%.

**Q.** And the IC50 [2]?
**A.** Its IC50 is 12.2 nM.

**Q.** `CCOc1ccc(Cc2cc3c(cc2Cl)O[C@H]2[C@@H](O)[C@H](O)[C@@H](CO)O[C@@H]32)cc1` was tested. Which inhibition [1] did it give?
**A.** Its inhibition is 8.6%.

**Q.** What does the source list for `CCc1ccc(Cc2cc([C@@H]3O[C@H](CO)[C@@H](O)[C@H](O)[C@H]3O)c(O)cc2Cl)cc1`?
**A.** inhibition [1]: 100%; IC50 [2]: 0.63 nM

**Q.** Which inhibition [1] does the source give for `OC[C@H]1O[C@@H](c2cc(Cc3cc4ccccc4s3)ccc2O)[C@H](O)[C@@H](O)[C@@H]1O` here?
**A.** Its inhibition is 103%.

**Q.** `OC[C@H]1O[C@@H](c2cc(Cc3cc4ccccc4s3)c(Cl)cc2O)[C@H](O)[C@@H](O)[C@@H]1O` was tested. Which inhibition [1] did it give?
**A.** Its inhibition is 97.5%.

**Q.** For `Cc1ccc(Cc2cc3c(cc2Cl)O[C@H]2[C@@H](O)[C@H](O)[C@@H](CO)O[C@@H]32)cc1`, which inhibition [1] is on record?
**A.** The inhibition was 4.2%.

**Q.** What does the source list for `CCOc1ccc(Cc2cc([C@@H]3O[C@H](CO)[C@@H](O)[C@H](O)[C@H]3O)c(O)cc2Cl)cc1`?
**A.** inhibition [1]: 89.7%; IC50 [2]: 1.03 nM

**Q.** With `CCc1ccc(Cc2cc3c(cc2Cl)O[C@H]2[C@@H](O)[C@H](O)[C@@H](CO)O[C@@H]32)cc1` as the compound, how does the inhibition [1] read?
**A.** The inhibition was 19.3%.

**Q.** `COc1ccc(Cc2cc3c(cc2Cl)O[C@H]2[C@@H](O)[C@H](O)[C@@H](CO)O[C@@H]32)cc1` was tested. Which inhibition [1] did it give?
**A.** The inhibition was 30.7%.

**Q.** Which results are given for `COc1ccc(Cc2cc([C@@H]3O[C@H](CO)[C@@H](O)[C@H](O)[C@H]3O)c(O)cc2Cl)cc1`?
**A.** inhibition [1]: 106%; IC50 [2]: 1.08 nM

**Q.** For `CCOc1ccc(Cc2ccc3c(c2)[C@@H]2O[C@H](CO)[C@@H](O)[C@H](O)[C@@H]2O3)cc1`, which inhibition [1] is on record?
**A.** Its inhibition is 66.5%.

**Q.** For `CCOc1ccc(Cc2cc([C@@H]3O[C@H](CO)[C@@H](O)[C@H](O)[C@H]3O)ccc2Cl)cc1`, which inhibition [1] is on record?
**A.** The inhibition was 103%.

**Q.** How did the inhibition [1] turn out when `OC[C@H]1O[C@H]2c3cc(Cc4cc5ccccc5s4)ccc3O[C@H]2[C@@H](O)[C@@H]1O` was run?
**A.** Its inhibition is 1.8%.

**Q.** Which inhibition [1] does the source give for `Cc1ccc(Cc2cc([C@@H]3O[C@H](CO)[C@@H](O)[C@H](O)[C@H]3O)c(O)cc2Cl)cc1` here?
**A.** Its inhibition is 101%.

**Q.** What about the IC50 [2] of the same compound?
**A.** The IC50 was 0.81 nM.

**Q.** How did the inhibition [1] turn out when `OC[C@H]1O[C@H]2c3cc(Cc4cc5ccccc5s4)c(Cl)cc3O[C@H]2[C@@H](O)[C@@H]1O` was run?
**A.** Its inhibition is 48.7%.
